Results from patent US8513238B2 (Hoffmann-La Roche Inc., priority 2010, dated 2013).
Counter-ions that a name gives are not always drawn.

Target: T1, human V1a receptor (Homo sapiens, UniProt P37288)
T1 construct: expressed in transfected cells; host or cells: HEK293 cells, transiently transfected; membranes prepared
Assay: human V1a receptor binding (3H-Vasopressin SPA, HEK293 membranes)
Conditions: membranes of HEK293 cells transiently transfected with human V1a receptor, Ki by Cheng-Prussoff; for Ki: read-out: pKi (hV1a) (converted)
Method: The human V1a receptor was cloned by RT-PCR from total human liver RNA. The coding sequence was subcloned in an expression vector after sequencing to confirm the identity of the amplified sequence. […] Cell membranes were prepared from HEK293 cells transiently transfected with the expression vector and grown in 20 liter fermenters with the following protocol.
50 g of cells are resuspended in 30 ml freshly prepared ice cold Lysis buffer (50 mM HEPES, 1 mM EDTA, 10 mM magnesium dichloride adjusted to pH=7.4+complete cocktail of protease inhibitor (Roche Diagnostics)). Homogenized with Polytron for 1 min and sonicated on ice for 2×2 minutes at 80% intensity (Vibracell sonicator). The preparation is centrifuged 20 min at 500 g at 4° C., the pellet is discarded and the supernatant centrifuged 1 hour at 43,000 g at 4° C. (19,000 rpm). The pellet is resuspended in 12.5 ml Lysis buffer+12.5 ml sucrose 20% and homogenized using a Polytron for 1-2 min. The protein concentration is determined by the Bradford method and aliquots are stored at −80° C. until use. For binding studies 60 mg Yttrium silicate SPA beads (Amersham®) are mixed with an aliquot of membrane in binding buffer (50 mM Tris, 120 mM sodium chloride, 5 mM potassium chloride, 2 mM calcium dichloride, 10 mM magnesium dichloride) for 15 minutes with mixing. 50 μl of bead/membrane mixture is then added to each well of a 96 well plate, followed by 50 μl of 4 nM 3H-Vasopressin (American Radiolabeled Chemicals). For total binding measurement 100 μl of binding buffer are added to the respective wells, for non-specific binding 100 μl of 8.4 mM cold vasopressin and for compound testing 100 μl of a serial dilution of each compound in 2% dimethyl sulfoxide. The plate is incubated 1 h at room temperature, centrifuged 1 min at 1000 g and counted on a Packard Top-Count. Non-specific binding counts are subtracted from each well and data is normalized to the maximum specific binding set at 100%. To calculate an IC50 the curve is fitted using a non-linear regression model (XLfit) and the Ki is calculated using the Cheng-Prussoff equation.

T1 sequence (P37288 whole entry): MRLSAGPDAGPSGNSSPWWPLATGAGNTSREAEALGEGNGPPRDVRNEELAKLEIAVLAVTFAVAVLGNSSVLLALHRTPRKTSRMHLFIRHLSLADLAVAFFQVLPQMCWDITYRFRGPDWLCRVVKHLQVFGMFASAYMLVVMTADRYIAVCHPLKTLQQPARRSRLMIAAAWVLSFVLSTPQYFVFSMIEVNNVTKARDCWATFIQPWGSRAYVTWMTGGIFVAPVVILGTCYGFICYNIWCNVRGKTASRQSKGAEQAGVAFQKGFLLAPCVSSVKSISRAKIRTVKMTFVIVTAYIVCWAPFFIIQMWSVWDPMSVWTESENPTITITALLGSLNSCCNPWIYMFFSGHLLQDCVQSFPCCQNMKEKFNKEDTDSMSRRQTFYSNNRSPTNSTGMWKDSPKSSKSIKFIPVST

Structure (SMILES) | Ki [nM] | pKi (hV1a)
Cc1nc([C@H]2CC[C@H](c3nnc4n3-c3ccc(Cl)cc3CN(C)C4)CC2)ns1 (stereo in doubt) [Example 97, trans-8-Chloro-5-methyl-1-[4-(5-methyl-[1,2,4]thiadiazol-3-yl)-cyclohexyl]-5,6-dihydro-4H-2,3,5,10b-tetraaza-benzo[e]azulene] | 2.88 | 
CC(C)(C)OC(=O)N1Cc2cc(Cl)ccc2-n2c(nnc2[C@H]2CC[C@H](c3ncco3)CC2)C1 [Example 1, trans-8-Chloro-1-(4-oxazol-2-yl-cyclohexyl)-4H,6H-2,3,5,10b-tetraaza-benzo[e]azulene-5-carboxylic acid tert-butyl ester] | 1 | 
Clc1ccc2c(c1)CNCc1nnc([C@H]3CC[C@H](c4ncco4)CC3)n1-2 [Example 2, trans-8-Chloro-1-(4-oxazol-2-yl-cyclohexyl)-5,6-dihydro-4H-2,3,5,10b-tetraaza-benzo[e]azulene] | 53.7 | 
CN1Cc2cc(Cl)ccc2-n2c(nnc2[C@H]2CC[C@H](c3ncco3)CC2)C1 [Example 3, trans-8-Chloro-5-methyl-1-(4-oxazol-2-yl-cyclohexyl)-5,6-dihydro-4H-2,3,5,10b-tetraaza-benzo[e]azulene] | 10.5 | 
Cc1coc([C@H]2CC[C@H](c3nnc4n3-c3ccc(Cl)cc3CN(C(=O)OC(C)(C)C)C4)CC2)n1 [Example 4, trans-8-Chloro-1-[4-(4-methyl-oxazol-2-yl)-cyclohexyl]-4H,6H-2,3,5,10b-tetraaza-benzo[e]azulene-5-carboxylic acid tert-butyl ester] | 0.398 | 
Cc1coc([C@H]2CC[C@H](c3nnc4n3-c3ccc(Cl)cc3CNC4)CC2)n1 [Example 5, trans-8-Chloro-1-[4-(4-methyl-oxazol-2-yl)-cyclohexyl]-5,6-dihydro-4H-2,3,5,10b-tetraaza-benzo[e]azulene] | 32.4 | 
Cc1coc([C@H]2CC[C@H](c3nnc4n3-c3ccc(Cl)cc3CN(C)C4)CC2)n1 [Example 6, trans-8-Chloro-5-methyl-1-[4-(4-methyl-oxazol-2-yl)-cyclohexyl]-5,6-dihydro-4H-2,3,5,10b-tetraaza-benzo[e]azulene] | 3.31 | 
Cc1cnc([C@H]2CC[C@H](c3nnc4n3-c3ccc(Cl)cc3CN(C(=O)OC(C)(C)C)C4)CC2)o1 [Example 7, trans-8-Chloro-1-[4-(5-methyl-oxazol-2-yl)-cyclohexyl]-4H,6H-2,3,5,10b-tetraaza-benzo[e]azulene-5-carboxylic acid tert-butyl ester] | 0.603 | 
Cc1cnc([C@H]2CC[C@H](c3nnc4n3-c3ccc(Cl)cc3CNC4)CC2)o1 [Example 8, trans-8-Chloro-1-[4-(5-methyl-oxazol-2-yl)-cyclohexyl]-5,6-dihydro-4H-2,3,5,10b-tetraaza-benzo[e]azulene] | 18.6 | 
Cc1cnc([C@H]2CC[C@H](c3nnc4n3-c3ccc(Cl)cc3CN(C)C4)CC2)o1 [Example 9, trans-8-Chloro-5-methyl-1-[4-(5-methyl-oxazol-2-yl)-cyclohexyl]-5,6-dihydro-4H-2,3,5,10b-tetraaza-benzo[e]azulene] | 2.19 | 
Cc1nc([C@H]2CC[C@H](c3nnc4n3-c3ccc(Cl)cc3CN(C(=O)OC(C)(C)C)C4)CC2)oc1C [Example 10, trans-8-Chloro-1-[4-(4,5-dimethyl-oxazol-2-yl)-cyclohexyl]-4H,6H-2,3,5,10b-tetraaza-benzo[e]azulene-5-carboxylic acid tert-butyl ester] | 0.525 | 
Cc1nc([C@H]2CC[C@H](c3nnc4n3-c3ccc(Cl)cc3CNC4)CC2)oc1C [Example 11, trans-8-Chloro-1-[4-(4,5-dimethyl-oxazol-2-yl)-cyclohexyl]-5,6-dihydro-4H-2,3,5,10b-tetraaza-benzo[e]azulene] | 5.5 | 
Cc1nc([C@H]2CC[C@H](c3nnc4n3-c3ccc(Cl)cc3CN(C)C4)CC2)oc1C [Example 12, trans-8-Chloro-5-methyl-1-[4-(4,5-dimethyl-oxazol-2-yl)-cyclohexyl]-5,6-dihydro-4H-2,3,5,10b-tetraaza-benzo[e]azulene] | 0.851 | 
CC(C)(C)OC(=O)N1Cc2cc(Cl)ccc2-n2c(nnc2[C@H]2CC[C@H](c3nccs3)CC2)C1 [Example 13, trans-8-Chloro-1-(4-thiazol-2-yl-cyclohexyl)-4H,6H-2,3,5,10b-tetraaza-benzo[e]azulene-5-carboxylic acid tert-butyl ester] | 1 | 
Clc1ccc2c(c1)CNCc1nnc([C@H]3CC[C@H](c4nccs4)CC3)n1-2 [Example 14, trans-8-Chloro-1-(4-thiazol-2-yl-cyclohexyl)-5,6-dihydro-4H-2,3,5,10b-tetraaza-benzo[e]azulene] | 28.2 | 
CN1Cc2cc(Cl)ccc2-n2c(nnc2[C@H]2CC[C@H](c3nccs3)CC2)C1 [Example 15, trans-8-Chloro-5-methyl-1-(4-thiazol-2-yl-cyclohexyl)-5,6-dihydro-4H-2,3,5,10b-tetraaza-benzo[e]azulene] | 3.31 | 
Cc1csc([C@H]2CC[C@H](c3nnc4n3-c3ccc(Cl)cc3CN(C(=O)OC(C)(C)C)C4)CC2)n1 [Example 16, trans-8-Chloro-1-[4-(4-methyl-thiazol-2-yl)-cyclohexyl]-4H,6H-2,3,5,10b-tetraaza-benzo[e]azulene-5-carboxylic acid tert-butyl ester] | 0.302 | 
Cc1csc([C@H]2CC[C@H](c3nnc4n3-c3ccc(Cl)cc3CNC4)CC2)n1 [Example 17, trans-8-Chloro-1-[4-(4-methyl-thiazol-2-yl)-cyclohexyl]-5,6-dihydro-4H-2,3,5,10b-tetraaza-benzo[e]azulene] | 7.59 | 
Cc1csc([C@H]2CC[C@H](c3nnc4n3-c3ccc(Cl)cc3CN(C)C4)CC2)n1 [Example 18, trans-8-Chloro-5-methyl-1-[4-(4-methyl-thiazol-2-yl)-cyclohexyl]-5,6-dihydro-4H-2,3,5,10b-tetraaza-benzo[e]azulene] | 1.7 | 
Cc1nc([C@H]2CC[C@H](c3nnc4n3-c3ccc(Cl)cc3CN(C(=O)OC(C)(C)C)C4)CC2)cs1 [Example 19, trans-8-Chloro-1-[4-(2-methyl-thiazol-4-yl)-cyclohexyl]-4H,6H-2,3,5,10b-tetraaza-benzo[e]azulene-5-carboxylic acid tert-butyl ester] | 0.2 | 
Cc1nc([C@H]2CC[C@H](c3nnc4n3-c3ccc(Cl)cc3CNC4)CC2)cs1 [Example 20, trans-8-Chloro-1-[4-(2-methyl-thiazol-4-yl)-cyclohexyl]-5,6-dihydro-4H-2,3,5,10b-tetraaza-benzo[e]azulene] | 12.3 | 
Cc1nc([C@H]2CC[C@H](c3nnc4n3-c3ccc(Cl)cc3CN(C)C4)CC2)cs1 [Example 21, trans-8-Chloro-5-methyl-1-[4-(2-methyl-thiazol-4-yl)-cyclohexyl]-5,6-dihydro-4H-2,3,5,10b-tetraaza-benzo[e]azulene] | 1.7 | 
Cc1cc([C@H]2CC[C@H](c3nnc4n3-c3ccc(Cl)cc3CN(C(=O)OC(C)(C)C)C4)CC2)no1 [Example 22, trans-8-Chloro-1-[4-(5-methyl-isoxazol-3-yl)-cyclohexyl]-4H,6H-2,3,5,10b-tetraaza-benzo[e]azulene-5-carboxylic acid tert-butyl ester] | 0.302 | 
Cc1cc([C@H]2CC[C@H](c3nnc4n3-c3ccc(Cl)cc3CNC4)CC2)no1 [Example 23, trans-8-Chloro-1-[4-(5-methyl-isoxazol-3-yl)-cyclohexyl]-5,6-dihydro-4H-2,3,5,10b-tetraaza-benzo[e]azulene hydrochloride] | 6.46 | 
Cc1cc([C@H]2CC[C@H](c3nnc4n3-c3ccc(Cl)cc3CN(C)C4)CC2)no1 [Example 24, trans-8-Chloro-1-[4-(5-methyl-isoxazol-3-yl)-cyclohexyl]-5-methyl-5,6-dihydro-4H-2,3,5,10b-tetraaza-benzo[e]azulene] | 1.2 | 
CCN1Cc2cc(Cl)ccc2-n2c(nnc2[C@H]2CC[C@H](c3cc(C)on3)CC2)C1 [Example 25, trans-8-Chloro-5-ethyl-1-[4-(5-methyl-isoxazol-3-yl)-cyclohexyl]-5,6-dihydro-4H-2,3,5,10b-tetraaza-benzo[e]azulene] | 1.74 | 
Cc1cc([C@H]2CC[C@H](c3nnc4n3-c3ccc(Cl)cc3CN(C(C)C)C4)CC2)no1 [Example 26, trans-8-Chloro-5-isoproyl-1-[4-(5-methyl-isoxazol-3-yl)-cyclohexyl]-5,6-dihydro-4H-2,3,5,10b-tetraaza-benzo[e]azulene] |  | 9.45
Cc1cc([C@H]2CC[C@H](c3nnc4n3-c3ccc(Cl)cc3CN(CC(F)F)C4)CC2)no1 [Example 28, trans-8-Chloro-5-(2,2-difluoro-ethyl)-1-[4-(5-methyl-isoxazol-3-yl)-cyclohexyl]-5,6-dihydro-4H-2,3,5,10b-tetraaza-benzo[e]azulene] | 0.603 | 
